# From patent US9108929B2, “Quinazoline based EGFR inhibitors” (Curis, Inc., priority 2006, dated 2015)
# Experiments:
# [1] = molecular target: T1, human EGFR (His672-Ala1210) (Homo sapiens, UniProt P00533); experiment: EGFR kinase inhibition assay (HTScan EGF Receptor Kinase Assay Kit); format: biochemical
# T1 construct: a construct expressing human EGFR (His672-Ala1210); GST (N); purchased Cell Signaling Technologies; host or cells: baculovirus expression system
# Description: The ability of compounds to inhibit receptor kinase (EGFR) activity can be assayed using HTSCAN™ EGF Receptor Kinase Assay Kits (Cell Signaling Technologies, Danvers, Mass.). […] The protein is purified by one-step affinity chromatography using glutathione-agarose.
# Immediately transfer enzyme from −80° C. to ice. Allow enzyme to thaw on ice. […] Return immediately to ice. […] Incubate reaction plate at room temperature for 30 minutes. […] Add 100 μl/well primary antibody. Incubate at room temperature for 60 minutes. […] Add 100 μl/well diluted antibody. Incubate at room temperature for 30 minutes. Wash five times with 200 μl/well PBS/T. Add 100 μl/well DELFIA® Enhancement Solution. Incubate at room temperature for 5 minutes.
# HER2/ErbB2 = HER2/ErbB2 (Homo sapiens, UniProt P04626); experiment: HER2/ErbB2 inhibition; format: biochemical
# HER2/ErbB2, sequence (P04626 23-1255): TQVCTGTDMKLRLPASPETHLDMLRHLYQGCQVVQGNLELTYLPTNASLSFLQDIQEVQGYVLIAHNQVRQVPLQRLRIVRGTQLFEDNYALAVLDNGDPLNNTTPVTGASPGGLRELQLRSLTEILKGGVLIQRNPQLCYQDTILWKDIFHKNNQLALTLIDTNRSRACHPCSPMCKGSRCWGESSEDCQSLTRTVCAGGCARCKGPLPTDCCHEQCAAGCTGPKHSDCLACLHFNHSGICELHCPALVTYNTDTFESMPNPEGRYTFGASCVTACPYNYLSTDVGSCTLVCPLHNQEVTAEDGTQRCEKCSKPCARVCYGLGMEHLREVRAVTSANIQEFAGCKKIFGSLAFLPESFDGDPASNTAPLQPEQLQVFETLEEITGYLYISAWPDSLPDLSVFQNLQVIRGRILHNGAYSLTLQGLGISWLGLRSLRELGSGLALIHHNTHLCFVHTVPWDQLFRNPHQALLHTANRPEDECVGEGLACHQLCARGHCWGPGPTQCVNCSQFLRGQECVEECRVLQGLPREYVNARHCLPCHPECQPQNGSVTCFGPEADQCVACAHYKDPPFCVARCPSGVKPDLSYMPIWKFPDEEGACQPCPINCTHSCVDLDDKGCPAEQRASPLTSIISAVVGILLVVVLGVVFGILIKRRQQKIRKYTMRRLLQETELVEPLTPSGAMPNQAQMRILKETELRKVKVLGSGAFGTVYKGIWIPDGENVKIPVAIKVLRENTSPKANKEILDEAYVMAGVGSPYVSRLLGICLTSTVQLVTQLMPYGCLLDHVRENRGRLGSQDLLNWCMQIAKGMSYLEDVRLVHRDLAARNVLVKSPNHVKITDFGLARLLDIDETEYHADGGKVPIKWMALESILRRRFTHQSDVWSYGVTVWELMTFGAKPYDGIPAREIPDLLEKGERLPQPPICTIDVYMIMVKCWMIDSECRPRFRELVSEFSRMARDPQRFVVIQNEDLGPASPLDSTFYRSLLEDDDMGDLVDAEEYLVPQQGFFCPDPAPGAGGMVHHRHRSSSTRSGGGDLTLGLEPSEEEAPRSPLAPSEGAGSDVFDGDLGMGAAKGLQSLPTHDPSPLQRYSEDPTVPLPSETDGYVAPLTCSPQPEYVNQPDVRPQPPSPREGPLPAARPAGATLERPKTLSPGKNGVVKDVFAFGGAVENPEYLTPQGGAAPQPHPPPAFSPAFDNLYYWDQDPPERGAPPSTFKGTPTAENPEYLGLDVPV
# [2] = system: HDAC (HeLa nuclear extract); experiment: HDAC fluorimetric assay (HDAC enzymatic activity); format: biochemical
# Description: HDAC inhibitors are screened using an HDAC fluorimetric assay kit (AK-500, Biomol, Plymouth Meeting, Pa.).
# Each assay is setup as follows: Defrost all kit components and keep on ice until use. Dilute HeLa nuclear extract 1:29 in Assay Buffer (50 mM Tris/Cl, pH 8.0, 137 mM NaCl, 2.7 mM KCl, 1 mM MgCl2). Prepare dilutions of Trichostatin A (TSA, positive control) and test compounds in assay buffer (5× of final concentration). Dilute Fluor de Lys™ Substrate in assay buffer to 100 uM (50 fold=2× final). Dilute Fluor de Lys™ developer concentrate 20-fold (e.g. 50 μl plus 950 μl Assay Buffer) in cold assay buffer. Second, dilute the 0.2 mM Trichostatin A 100-fold in the 1× Developer (e.g. 10 μl in 1 ml; final Trichostatin A concentration in the 1× Developer=2 μM; final concentration after addition to HDAC/Substrate reaction=1 μM). Add Assay buffer, diluted trichostatin A or test inhibitor to appropriate wells of the microtiter plate. Add diluted HeLa extract or other HDAC sample to all wells except for negative controls. Allow diluted Fluor de Lys™ Substrate and the samples in the microtiter plate to equilibrate to assay temperature (e.g. 25 or 37° C. Initiate HDAC reactions by adding diluted substrate (25 μl) to each well and mixing thoroughly.
# Allow HDAC reactions to proceed for 1 hour and then stopped them by addition of Fluor de Lys™ Developer (50 μl). Incubate plate at room temperature (25° C.) for 10-15 min. Read samples in a microtiter-plate reading fluorimeter capable of excitation at a wavelength in the range 350-380 nm and detection of emitted light in the range 440-460 nm.
# T1 sequence (P00533 672-1210): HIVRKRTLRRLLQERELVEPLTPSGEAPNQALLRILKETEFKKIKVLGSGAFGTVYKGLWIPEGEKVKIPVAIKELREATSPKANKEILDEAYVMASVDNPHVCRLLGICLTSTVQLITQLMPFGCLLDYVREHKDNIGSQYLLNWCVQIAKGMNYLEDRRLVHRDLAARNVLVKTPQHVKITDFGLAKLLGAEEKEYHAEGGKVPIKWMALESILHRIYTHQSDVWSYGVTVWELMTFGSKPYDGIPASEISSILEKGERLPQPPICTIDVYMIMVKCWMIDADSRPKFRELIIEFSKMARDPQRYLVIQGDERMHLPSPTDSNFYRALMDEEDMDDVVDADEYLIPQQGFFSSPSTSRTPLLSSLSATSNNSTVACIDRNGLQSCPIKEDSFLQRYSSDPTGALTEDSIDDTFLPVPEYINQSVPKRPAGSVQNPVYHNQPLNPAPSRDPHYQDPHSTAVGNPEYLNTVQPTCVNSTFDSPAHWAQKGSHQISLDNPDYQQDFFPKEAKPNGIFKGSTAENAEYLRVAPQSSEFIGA
SMILES,IC50 [1] [nM],IC50 (HER2/ErbB2) [nM],IC50 [2] [nM],melting point [°C]
C#Cc1cccc(Nc2ncnc3cc(OC)c(OCCCCC(=O)O)cc23)c1,< 100,,,
C#Cc1cccc(Nc2ncnc3cc(OC)c(OCCCCCCC(=O)O)cc23)c1,< 100,100 to 1000,> 10000,
C#Cc1cc(Nc2ncnc3cc(OC)c(OCCCCCCC(=O)O)cc23)ccc1O,< 100,,> 10000,
C#Cc1cc(Nc2ncnc3cc(OC)c(OCCCCC(=O)O)cc23)ccc1O,,,> 10000,
"CCOC(=O)COc1ccc2ncnc(Nc3ccc(F)c(Cl)c3)c2c1 [Compound 0210-13, Ethyl 2-(4-(3-chloro-4-fluorophenylamino)quinazolin-6-yloxy)acetate]",,,,161 to 163
